Values of other authors, collected in patent US20080280850A1, “Methods and Compositions for Treating Flaviviruses, Pestiviruses and Hepacivirus” (priority 2004, published 2008).

Tested on: HCV

NC(=O)c1ncn([C@@H]2O[C@H](CO)[C@@H](O)[C@H]2O)n1 [Ribavirin, 1-[…]D-ribofuranosyl-1-1,2,4-triazole-3-carboxamide]
effect on serum levels of HCV-RNA (patients, monotherapy): does not lower serum levels of HCV-RNA
serum amino transferase levels reduced to normal, share of patients (ribavirin alone): 40%
